Test results from patent publication US9528990B2, “Fluorogenic/fluorescent probes derivative from sulfoxanthene, and use thereof” (bioMérieux, priority 2014, dated 2016).
Each block holds one compound with its values, some of them ahead of it.

What was measured:
E. coli K12 = assay: Bacterial azoreduction overnight, compared with Methyl Red; type: cell-based; settings: 100 μM, overnight 37° C.
Description: a) The bacterial reduction of SR101-Q-CO2H was compared to the one of Methyl Red, an azo dye. Each molecule at 100 μM in Trypcase Soya Broth in presence 7.5*10^7 colonies forming unit (cfu) of E. coli K12 was incubated overnight at 37° C. The fluorescence produced by the azoreduction of Methyl Red was measured at 395 nm under an excitation wavelength of 250 nm. The fluorescence produced by the azoreduction of SR101-Q-CO2H was measured at 580 nm under an excitation wavelength of 550 nm. For Methyl Red the ratio between medium with and without bacteria was 469/184 (×2.5). For SR101-Q-CO2H, it was 19 times upper: 17269/363 (×48).

[1] = biological target: nitroreductase from Escherichia coli (NfsA) (Escherichia coli, UniProt P17117); assay: Kinetic study of SR101-NO2 with purified nitroreductase; type: biochemical
Description: A kinetic study was carried out by incubating the substrate SR101-NO2 in PBS at 37.5° C., at a concentration of about 5 μM.
Successive additions of NADH and nitroreductase from Escherichia coli (NfsA=4×2.5 μg) were performed and the fluorescence at 575 nm (emission maximum of SR101-110) was measured, under an excitation wavelength of 500 nm.

[2] = tested on: E. coli strain (ATCC 25922); assay: Reduction of SR101-NO2 by growing E. coli cells, followed by fluorescence; type: cell-based, Escherichia coli; settings: about 10^6 cfu/ml, Trypcase Soya Broth, 37° C.; 0-100 μM as SR101-110/SR101-NO2 about 10/90; ex 550 nm, em 580 nm (FIG. 1c)
Description: The reduction of SR101-NO2 by an E. coli strain (ATCC 25922), known for its nitroreduction ability, was analyzed in fluorescence.
This kinetic study was carried out with an initial concentration of cells around 10^6 cfu/ml, growing in Trypcase Soya Broth at 37° C., in presence of different concentrations of fluorogenic substrate (from 0 μM to 100 μM). For this study, said fluorogenic substrate is used in the form of a SR101-110/SR101-NO2 (with a ratio of about 10/90).
The fluorescence at 580 nm was measured, under an excitation wavelength of 550 nm.

[3] = tested on: sulfatase from Helix pomatia; assay: Kinetic study with sulfatase; type: biochemical; settings: about 10 μM, PBS pH 7.4, 7.8 units sulfatase, 37° C.; ex 540 nm
Description: A kinetic study of SR101-NaphtO(SO3H) was carried out by incubating this fluorogenic substrate, previously solubilized in phosphate buffered saline (pH 7.4) at a concentration of about 10 μM, with 7.8 units of a sulfatase from Helix pomatia, at 37° C. The evolution of the intensity of fluorescence at 600 nm, emitted under an excitation wavelength of 540 nm, was recorded and is presented in FIG. 6.

[4] = Chemically simulated myeloperoxidase activity with sodium hypochlorite; settings: about 10 μM, PBS pH 7.4, 150 equivalents sodium hypochlorite, 25° C.; ex 540 nm
Description: A kinetic study of SR101-NaphtO(para-aminophenyl) acid was carried out by incubating this fluorogenic substrate, previously solubilized in phosphate buffered saline (pH 7.4) at a concentration of about 10 μM, with 150 equivalents of sodium hypochlorite, at 25° C.
This chemical procedure using sodium hypochlorite is routinely used to simulate a myeloperoxidase activity (Shepherd et al., Chemistry and Biology, 2007, 14: 1221-1231).
The evolution of the intensity of fluorescence at 650 nm, emitted under an excitation wavelength of 540 nm, was recorded and is presented in FIG. 7.

pig liver esterase (PLE) = assay: Kinetic study with carboxylesterase; type: biochemical; settings: about 5 μM, PBS pH 7.4, 10 units PLE, 37° C.; ex 540 nm (SR101-NaphtOAc) or 530 nm (SR101-NaphtO-lauric acid)
Description: 1. A kinetic study of SR101-NaphtOAc was carried out by incubating this fluorogenic substrate, previously solubilized in phosphate buffered saline (pH 7.4) at a concentration of about 5 μM, with 10 units of pig liver esterase (PLE), at 37° C. The evolution of the intensity of fluorescence at 600 nm, emitted under an excitation wavelength of 540 nm, was recorded and is presented in FIG. 5a. 2. A kinetic study of SR101-NaphtO-lauric acid was carried out by incubating this fluorogenic substrate, previously solubilized in phosphate buffered saline (pH 7.4) at a concentration of about 5 μM, with 10 units of pig liver esterase (PLE), at 37° C. The evolution of the intensity of fluorescence at 600 nm, emitted under an excitation wavelength of 530 nm, was recorded and is presented in FIG. 5b.

[5] = emitted fluorescence before and after the reduction (FIG. 1b)

Sequence of nitroreductase from Escherichia coli (NfsA) (P17117 whole entry): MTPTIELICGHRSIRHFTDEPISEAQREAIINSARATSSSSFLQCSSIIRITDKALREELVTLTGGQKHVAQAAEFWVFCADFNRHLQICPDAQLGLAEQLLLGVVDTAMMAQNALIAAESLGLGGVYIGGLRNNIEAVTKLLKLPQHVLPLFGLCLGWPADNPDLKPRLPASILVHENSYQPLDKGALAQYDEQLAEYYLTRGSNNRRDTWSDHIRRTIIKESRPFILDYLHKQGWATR

Structure (SMILES): CN(C)c1ccc(/N=N/c2ccccc2C(=O)O)cc1 [Methyl Red]
- fluorescence of medium with bacteria (E. coli K12; Trypcase Soya Broth, 7.5*10^7 cfu, Methyl Red ex 250/em 395 nm, SR101-Q-CO2H ex 550/em 580 nm): 469
- ratio between medium with and without bacteria (×) (E. coli K12): 2.5

Structure (SMILES): O=[N+]([O-])c1ccc2c(c1)Oc1c3c4c(cc1=C2c1ccc(S(=O)(=O)O)cc1S(=O)(=O)[O-])CCC[N+]=4CCC3 [SR101-NO2]
- reduction of the substrate by nitroreductase ([1]; 5 μM substrate, total 10 μg enzyme (4×2.5 μg), after an hour of incubation at 37.5° C.): complete reduction
- influence of NADH alone on the evolution of the fluorescence ([1]; NADH 0.5 mM, no enzyme, about 5 μM substrate in PBS, 37.5° C., ex 500 nm, em 575 nm): did not influence
- fluorescence enhancement (factor) [1, 5]: 15
- quenching efficiency [1, 5]: 92%
- nitroreduction by growing cells (fluorescence evolution) [2]: progressive nitroreduction

Structure (SMILES): CCCCCCCCCCCC(=O)Oc1ccc2c3c(ccc2c1)C(c1ccc(S(=O)(=O)O)cc1S(=O)(=O)O)=c1cc2c4c(c1O3)CCC[N+]=4CCC2 [SR101-NaphtO-lauric acid]
- fluorescence at 600 nm after addition of the esterase (pig liver esterase (PLE)): remarkable fluorescence enhancement

Now from value to compound:

- fluorescence at 600 nm after addition of the sulfatase [3]: remarkable fluorescence enhancement
Structure (SMILES): O=S(=O)(O)Oc1ccc2c3c(ccc2c1)C(c1ccc(S(=O)(=O)[O-])cc1S(=O)(=O)O)=c1cc2c4c(c1O3)CCC[N+]=4CCC2 [SR101-NaphtO(SO3H)]

- fluorescence at 650 nm after addition of sodium hypochlorite [4]: remarkable fluorescence enhancement
Structure (SMILES): Nc1ccc(Oc2ccc3c4c(ccc3c2)C(c2ccc(S(=O)(=O)O)cc2S(=O)(=O)O)=c2cc3c5c(c2O4)CCC[N+]=5CCC3)cc1 [SR101-NaphtO(para-aminophenyl)]

- fluorescence at 600 nm after addition of the esterase (pig liver esterase (PLE)): remarkable fluorescence enhancement
Structure (SMILES): CC(=O)Oc1ccc2c3c(ccc2c1)C(c1ccc(S(=O)(=O)[O-])cc1S(=O)(=O)O)=c1cc2c4c(c1O3)CCC[N+]=4CCC2 [SR101-NaphtOAc]
